Reference: patent US9999672B2, “Pharmaceutical compositions of fumaric acid esters” (XenoPort, Inc., priority 2014, dated 2018)
Read-outs that look alike come from different tables or passages of the source.

What was measured:
[1] = assay type: physicochemical; conditions: 53 h, 0.1 mg/mL, pH 4
Procedure: A quartz flask containing approximately 20 mL of 0.1 mg/mL (N,N-diethylcarbamoyl)methyl methyl (2E)but-2-ene-1,4-dioate in 50 mM pH 4.0 citrate buffer was placed in an ICH2 Photoreactor (Luzchem Research Inc.) with 16 cool white fluorescent lamps (F8T5/CW-8 Watt) installed. The light power was 22.8×10^3 lux with low level of near UV light (320-400 nm) at 2.2 watt/m^2. The sample was taken out after 53 hours to achieve a light exposure of 1.2 million lux hours.
To quantify the photodegratation of the (N,N-diethylcarbamoyl)methyl methyl (2E)but-2-ene-1,4-dioate powder, the presence of (N,N-diethylcarbamoyl)methyl methyl (2Z)but-2-ene-1,4-dioate (“compound (2)”) was quantified. The structure for compound (2) is shown below:
The sample was analyzed using the same HPLC method as described in Example 1. The amount of compound (2) found was 22.3 wt %.

[2] = assay type: physicochemical; conditions: 53 h
Procedure: Approximately 50 mg (N,N-diethylcarbamoyl)methyl methyl (2E)but-2-ene-1,4-dioate powder was spread into a thin layer (˜1 mm) in open quartz containers. The sample was then placed in an ICH2 Photoreactor (Luzchem Research Inc.) with 16 cool white fluorescent lamps (F8T5/CW-8 Watt) installed. The light power was 22.8×10^3 lux with low level of near UV light (320-400 nm) at 2.2 watt/m^2. The sample was taken out after 53 hours to achieve a light exposure of 1.2 million lux hours. The sample solution was prepared at 0.2 mg/mL in diluent (water/acetonitrile/H3PO4 (80/20/0.05 by volume)).
To quantify the photodegratation of the (N,N-diethylcarbamoyl)methyl methyl (2E)but-2-ene-1,4-dioate powder, the presence of (N,N-diethylcarbamoyl)methyl (1S,3S,2R,4R)-2-{[(N,N-diethylcarbamoyl)methyl]oxycarbonyl}-3,4-bis(methoxycarbonyl)cyclobutanecarboxylate (“compound (1)”) was quantified. The structure of compound (1) is shown below:
The amount (weight percent) of compound (1) in the sample was determined by reverse phase HPLC using a C18 column and a 30-minute gradient method according to Table 1 where Mobile Phase A is water/0.05% H3PO4 and Mobile Phase B is water/acetonitrile/H3PO4 (10/90/0.05 by volume) with UV detection at 210 nm. The amount of compound (1) found was 29.0 wt %.

[3] = assay type: physicochemical; conditions: 2.1 h
Procedure: Approximately 50 mg (N,N-Diethylcarbamoyl)methyl methyl (2E)but-2-ene-1,4-dioate powder was spread into a thin layer in open quartz containers. The sample was then placed in an ICH2 Photoreactor (Luzchem Research Inc.) with 16 near-UV fluorescent lamps (Hitachi FL8BL-B) installed. The near-UV light (320-400 nm) power was 94.2 watt/m^2. The sample was taken out after 2.1 hours to achieve a light exposure of 200 watt hour/m^2. The sample was prepared and analyzed the same way as described in Example 1. The amount of compound (1) found was 10.3 wt %.

amount of compound (2) found (2Z isomer photodegradant) [1]: 22.3 wt % | amount of compound (1) found (photodegradant) [2]: 29.0 wt % | amount of compound (1) found (photodegradant) [3]: 10.3 wt %
Compound: CCN(CC)C(=O)COC(=O)/C=C/C(=O)OC [(N,N-Diethylcarbamoyl)methyl methyl (2E)but-2-ene-1,4-dioate]
